Data as given in patent publication US5162336A, “Tetrahydro-pyrido-indoles as cholecystokinin and gastrin antagonists” (Rhone-Poulenc Rorer Pharmaceuticals Inc., priority 1990, dated 1992).

Molecular target: T1, CCK-A receptor (Rattus norvegicus, UniProt P30551)
T1 construct: from tissue; host or cells: pancreas membranes of Sprague-Dawley rat
T1 sequence (P30551 1-444): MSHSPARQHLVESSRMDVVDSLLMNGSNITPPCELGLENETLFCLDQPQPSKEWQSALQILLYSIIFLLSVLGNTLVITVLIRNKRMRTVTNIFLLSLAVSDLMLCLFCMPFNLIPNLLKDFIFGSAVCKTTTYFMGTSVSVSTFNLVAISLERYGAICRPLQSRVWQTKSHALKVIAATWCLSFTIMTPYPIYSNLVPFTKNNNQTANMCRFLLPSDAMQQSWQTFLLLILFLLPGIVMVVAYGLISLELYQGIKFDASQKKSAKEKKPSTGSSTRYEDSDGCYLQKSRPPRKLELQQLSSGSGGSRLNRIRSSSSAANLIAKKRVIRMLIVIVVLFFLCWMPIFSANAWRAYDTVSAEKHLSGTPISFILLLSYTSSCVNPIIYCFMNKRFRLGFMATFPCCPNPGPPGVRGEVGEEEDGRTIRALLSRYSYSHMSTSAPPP
Assay: CCK-A receptor binding assay (displacement of 3H-L-364,718 from rat pancreas membranes)
Design: species or system Sprague-Dawley rat
Conditions: 3H-L-364,718 0.2 nM, 37° C., 30 min, read-out: In vitro Binding Data IC50 CCK
Outline: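 Rat pancreas membranes incubated 30 min at 37 °C with 0.2 nM 3H-L-364,718 in 50 mM Tris pH 7.7, 5 mM MgCl2, 5 mM DTT, 0.14 mg/ml bacitracin, 2 mg/ml BSA. Nonspecific binding defined by 300 nM unlabeled L-364,718; rapid filtration and scintillation counting, triplicates.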

## CC(C)C[C@H](NC(=O)[C@H]1Cc2c([nH]c3ccccc23)CN1C(=O)Nc1cccc2ccccc12)C(=O)N[C@@H](CC(=O)O)C(N)=O [Example 67, N-[(3R)-2-(1-naphthylcarbamoyl)-1,2,3,4-tetrahydro-9H-pyrido[3,4-b]indole-3-carboxyl]-L-leucyl-L-aspartic acid amide]
  IC50: 100 µM
